Data: US11884710B2, “Peptide compounds and methods of use in wound healing” (priority 2013, dated 2024)
Square brackets hold non-standard residues; d marks the D form. Peptide text beside a SMILES is read from it. PEG2 = NCCOCCOCCC(=O)O

Assays:
Escherichia coli = assay: In vitro bactericidal activity against Escherichia coli; assay type: cell-based; conditions: E. coli; inoculum 1×10^6 CFU/ml; 60 to 180 minute incubation
Experimental: (§1) In vitro bactericidal activity: The three peptide compounds BCC01-5RMP (SEQ ID NO:23), BCC002-5RMP (SEQ ID NO:21), and BCC003-5RMP (SEQ ID NO:22) were assayed for in vitro bactericidal activity against Pseudomonas aeruginosa, Escherichia coli, Salmonella typhimurium, and Acinetobacter baumannii. The starting inoculum for all experiments was 1×10^6 colony forming units (CFU)/ml. The CFU remaining at the end of 60 to 180 minute incubation was determined, and the data plotted as a log reduction in CFU/ml.

Acinetobacter baumannii = assay: In vitro bactericidal activity against Acinetobacter baumannii; assay type: cell-based; conditions: inoculum 1×10^6 CFU/ml, 60 to 180 minute incubation
Experimental: as §1

Pseudomonas LPS = assay: LPS binding, Limulus Amebocyte Lysate (LAL) assay; conditions: LAL method
Experimental: (§2) The well-characterized response of RAW264.7 macrophage cells was used to produce tumor necrosis-factor-alpha (TNF-α) in response to LPS to determine whether the peptides could dampen the release of this cytokine. […] Importantly, pre-treatment (3 hours prior to LPS addition) as well as post-treatment of the RAW264.7 cells (3 hours post LPS addition) with peptide dampened the cytokine release. […] The finding that the novel peptides bind and neutralize the effect of Pseudomonas LPS is of critical importance since this ensures that the novel therapeutic peptide compounds described herein will not only kill the bacteria, but will also neutralize the LPS endotoxin released by the bacteria which plays such an important role in the rapid progression of sepsis.
(§3) BCC01-5RMP (SEQ ID NO:23), BCC002-5RMP (SEQ ID NO:21), and BCC003-5RMP (SEQ ID NO:22) were tested for their ability to bind lipopolysaccharide (LPS) using the limulus amebocyte lysate method (LAL). […] There was no statistical difference in their ability to bind LPS using the LAL technique. The ability of the peptides to neutralize LPS was assessed by determining their ability to attenuate the release of tumor necrosis factor-alpha (TNF-α) from LPS-stimulated RAW264.7 cells (a mouse macrophage cell line). […] No significant differences were observed between the three peptides to neutralize LPS as measured by cytokine release. Peptides based on sequence 120-146 (SEQ ID NOS:28-31) also bind and neutralize Pseudomonas LPS.

P. aeruginosa ATCC 27853 = assay type: cell-based, Pseudomonas aeruginosa; conditions: Pseudomonas; inoculum 1×10^6 CFU/ml; 60 to 180 minute incubation
Experimental: as §1
Table 4 further compares the activity of several other compounds, including the “5R” versions of BCC01, i.e., SEQ ID NO:20 (which comprises SEQ ID NO: 7 with five additional arginines), the “5R” version of BCC002 (i.e., SEQ ID NO:18, which comprises SEQ ID NO: 1 with five additional arginines), and the 5RMP versions of BCC01 (SEQ ID NO: 23) and BCC002 (SEQ ID NO: 21). The data generally indicate the superiority of BCC003-5RMP (SEQ ID NO:22) and BCC002-5RMP (SEQ ID NO: 21) and the superiority of the 5R or 5RMP versions of the peptide over the “AEEP only” peptide against P. aeruginosa.

[1] = system: release of TNF-α from LPS-stimulated RAW264.7 cells; assay: LPS neutralization: TNF-α release from LPS-stimulated RAW264.7 cells; assay type: cell-based, mouse
Experimental: as §2, §3

[2] = system: P. aeruginosa (ATCC 27853); assay: Mouse model of Pseudomonas (bacterial) keratitis; assay type: in vivo; conditions: C57/BL6 mice; topical peptide 0.25 to 0.75 mg/ml; 48 hours post-infection
Experimental: A circular wound was created on the mouse cornea by removing the epithelium and infected with 10^5 colony forming units (CFU) of P. aeruginosa (ATCC® 27853™ (American Type Culture Collection, Manassas, Va.)). Infected wounds were treated with saline (0.9% sodium chloride, vehicle control) or saline containing indicated concentrations of peptide every 15 minutes for 2 hours, then every 30 minutes for 3 hours on the first day. Infected wounds were treated twice on the second day and once on the third day. Mice were killed at 48 hours post-infection, and CFU/eye were quantified. The means were plotted and are representative of 5 to 9 mice per group. Mann Whitney test was performed for each group as compared to the saline control group. *P=0.014. In compound names such as BCC02-5RMP used herein, “R” represents arginine, and “MP” represents a small PEG molecule as defined elsewhere herein (such as, for example but not by way of limitation, “AEEP”).
(§4) A circular wound was created on the mouse cornea by removing the epithelium, and the wound was infected with 10^5 CFU of P. aeruginosa (ATCC® 27853™ (American Type Culture Collection, Manassas, Va.)). Infected wounds were treated with saline or saline containing indicated concentrations (2, 5, 10, and 20 mg/ml) of peptide every 30 minutes for 6 hours on the first day. Infected wounds were treated twice on the second day and once on the third day. Mice were killed at 48 hours post-infection, and the CFU/eye were quantified. The means are plotted and are representative of 5 mice per group. Mann Whitney test was performed for each group as compared to the saline control group. *P=0.015 and **P=0.097.
as §4, with “representative of 4 to 5 mice” for “representative of 5 mice”, “control group.” for “control group. *P=0.015 and **P=0.097.”
as §4, with “group. **P=0.0079 by” for “group.”, “test” for “test was performed for each group”, “group.” for “group. *P=0.015 and **P=0.097.”
A circular wound (2 mm) was created on the mouse cornea by removing the epithelium and infecting the wound with 10^5 CFU of P. aeruginosa (ATCC® 27853™ (American Type Culture Collection, Manassas, Va.)). Infected wounds were treated with saline or saline containing indicated concentrations of peptide every 15 minutes for 2 hours, then every 30 minutes for 3 hours on the first day. […] Mice were killed at 48 hours post-infection, and the colony forming units per eye (CFU/eye) were quantified. […]

Salmonella typhimurium = assay: In vitro bactericidal activity against Salmonella typhimurium; assay type: cell-based; conditions: inoculum 1×10^6 CFU/ml, 60 to 180 minute incubation
Experimental: as §1

[3] = system: Pseudomonas clinical isolate B64; assay: BIOSCREEN C growth assay, peptide plus antibiotic combinations; assay type: cell-based, Pseudomonas aeruginosa
Experimental: FIGS. 28A and 28B show the effect of BCC002-5R-MP (SEQ ID NO:21) in combination with Cefotaxime on MIC using Pseudomonas clinical isolate B64. Cefotaxime (Cefo) and peptide combinations included a constant amount of Cefotaxime (2.81 μg/ml) with suboptimal amounts of peptide (0, 0.34, 1.01, and 3.04 μg/ml). […] FIG. 28B is a histogram showing Fractional area (FA), which is an indication of the MIC.
FIG. 29B is a histogram showing Fractional area (FA), which is an indication of the MIC.
FIGS. 30A and 30B show the effect of BCC02-5R-MP (SEQ ID NO:21) in combination with Levofloxacin (Levo) and peptide combinations included a constant amount of Levofloxacin (3.6 μg/ml) with suboptimal amounts of peptide (0, 0.34, 1.01, 3.04 μg/ml). […] FIG. 30B is a histogram showing Fractional area (FA), which is an indication of the MIC.
The peptide and antibiotics were set up in the wells of the microtiter plate at starting ratios of MIC equivalents of antibiotic:peptide at 3:1, 1:1, and 1:3. They were serially diluted to concentrations well below suboptimal/sublethal levels of the antibiotic and peptide. The organism was added (1×10^5 CFU/well), the BIOSCREEN C™ assay (Growth Systems USA, Piscataway, N.J.) was performed, and data was collected over 24 hours.

CC[C@H](C)[C@H](NC(=O)[C@H](CC(C)C)NC(=O)[C@H](C)NC(=O)CNC(=O)CNC(=O)[C@H](CO)NC(=O)[C@H](Cc1ccccc1)NC(=O)[C@H](Cc1c[nH]cn1)NC(=O)[C@H](CCCNC(=N)N)NC(=O)CNC(=O)[C@H](CCC(N)=O)NC(=O)[C@H](CC(N)=O)NC(=O)[C@H](CCCNC(=N)N)NC(=O)[C@H](CCCNC(=N)N)NC(=O)[C@H](CCCNC(=N)N)NC(=O)[C@H](CCCNC(=N)N)NC(=O)CCOCCOCCNC(=O)CCOCCOCCN)C(=O)N[C@@H](Cc1c[nH]cn1)C(=O)N[C@@H](C)C(=O)N[C@@H](CCCNC(=N)N)C(=O)N[C@@H](Cc1ccccc1)C(=O)N[C@H](C(=O)N[C@@H](CCSC)C(=O)N[C@H](C(=O)N[C@@H](C)C(=O)N[C@@H](C)C(=O)N[C@@H](CO)C(=O)N[C@@H](CS)C(=O)N[C@@H](Cc1ccccc1)C(=O)N[C@@H](CCC(N)=O)C(=O)N[C@@H](CCCNC(=N)N)C(=O)O)[C@@H](C)O)C(C)C [BCC02-5RMP] (H-[PEG2][PEG2]RRRRNQGRHFSGGALIHARFVMTAASCFQR-OH; C-terminus assumed)
in vitro bactericidal activity, in words (Escherichia coli): strong, but lesser activity | in vitro bactericidal activity, in words (Acinetobacter baumannii): most active | binding of Pseudomonas LPS (Pseudomonas LPS): bound Pseudomonas LPS | in vitro bactericidal activity, in words (P. aeruginosa ATCC 27853): most active | neutralization of LPS: attenuation of TNF-α release [1]: attenuate the release of TNF-α | CFU/eye, in words [2]: effectively killed all bacteria and cured the infection | in vitro bactericidal activity, in words (Salmonella typhimurium): strong, but lesser activity | sensitivity of the bacterium to Cefotaxime with peptide, in words ([3]; 3.04 μg/ml of peptide with Cefotaxime 2.81 μg/ml): now sensitive | effect of peptide on the killing effect of Cefotaxime, in words ([3]; 0.34 and 1.0 μg/ml of peptide with Cefotaxime 2.81 μg/ml): no statistical effect

CC[C@H](C)[C@H](NC(=O)[C@H](CC(C)C)NC(=O)[C@H](C)NC(=O)CNC(=O)CNC(=O)[C@H](CS)NC(=O)[C@H](Cc1ccccc1)NC(=O)[C@H](Cc1c[nH]cn1)NC(=O)[C@H](CCCNC(=N)N)NC(=O)CNC(=O)[C@H](CCC(N)=O)NC(=O)[C@H](CC(N)=O)NC(=O)[C@H](CCCNC(=N)N)NC(=O)[C@H](CCCNC(=N)N)NC(=O)[C@H](CCCNC(=N)N)NC(=O)[C@H](CCCNC(=N)N)NC(=O)CCOCCOCCNC(=O)CCOCCOCCN)C(=O)N[C@@H](Cc1c[nH]cn1)C(=O)N[C@@H](C)C(=O)N[C@@H](CCCNC(=N)N)C(=O)N[C@@H](Cc1ccccc1)C(=O)N[C@H](C(=O)N[C@@H](CCSC)C(=O)N[C@H](C(=O)N[C@@H](C)C(=O)N[C@@H](C)C(=O)N[C@@H](CO)C(=O)N[C@@H](CO)C(=O)N[C@@H](Cc1ccccc1)C(=O)N[C@@H](CCC(N)=O)C(=O)N[C@@H](CCCNC(=N)N)C(=O)O)[C@@H](C)O)C(C)C [BCC03-5RMP] (H-[PEG2][PEG2]RRRRNQGRHFCGGALIHARFVMTAASSFQR-OH)
in vitro bactericidal activity, in words (Escherichia coli): strong, but lesser activity | in vitro bactericidal activity, in words (Acinetobacter baumannii): most active | binding of Pseudomonas LPS (Pseudomonas LPS): bound Pseudomonas LPS | in vitro bactericidal activity, in words (P. aeruginosa ATCC 27853): most active | neutralization of LPS: attenuation of TNF-α release [1]: attenuate the release of TNF-α | in vitro bactericidal activity, in words (Salmonella typhimurium): strong, but lesser activity
